Each structure is given as a SMILES string. Entries after “also recorded” stand apart in the source; their conditions may differ. Residues, ends and D or L forms follow the SMILES beside them. *: point of attachment. Fluorescein(5-Mal) = O=C1OC2(c3ccc(O)cc3Oc3cc(O)ccc32)c2ccc(N3C(=O)CC(*)C3=O)cc21 Some results are limits rather than exact numbers.

One data set has as its system mouse facial nerve. Put plainly: Topical application on ex-vivo mouse facial nerve with surrounding muscle. It is filed as binding. As to conditions: 375 and 100 μM topical.
Data set [1] has as its system autonomic (cavernosal) nerves from human prostate gland. The data set is described as follows: Topical application on autonomic nerves from human prostate gland. As to conditions: 100 μM topical, two patients. It is filed as binding. On the procedure: FAM-HNP401 and FAM-NP41 were then tested topically for binding to autonomic nerves, isolated from excised prostate glands of two human patients (FIGS. 12 and 13). […] Labelled fiber were confirmed as nerve using anti-neurofilament antibody SMI312 (red) and DAPI (blue) to show nuclear labeling (FIG. 12C). H&E staining was also done to confirm label tissue as nerve (FIG. 12D). Similar staining was obtained for peripheral sensory anti-brachial cutaneous nerve isolated from a human arm (FIGS. 12E-H).
FAM-HNP401 and FAM-NP41 were tested for binding to autonomic nerves, isolated from the prostate glands of two human patients (FIGS. 19 and 29). […] Quantitation was not done because only 2 patient samples were available for testing as nerve resection during radical prostatectomy is only performed in instances of gross capsular invasion. Labelled fibers were confirmed as nerve using anti-neurofilament antibody SMI312 (red) with DAPI (blue) to show nuclear labeling (FIG. 19C). H&E staining also confirmed label tissue as nerve by histology (FIG. 19D). […] Similar staining using FAM-HNP401 was obtained for another sensory nerve (anti-brachial cutaneous) isolated from human arm showing the broad nerve binding activity of HNP401 (FIGS. 19E-H).
Human sural nerve, antebrachial nerve and laryngeal nerve and temporalis muscle were obtained under IRB protocol number 130837 for Dr. Quyen Nguyen. […]

Another data set relates to human laryngeal nerve. Put plainly: Dose response by topical application on human laryngeal nerve sections. It is filed as binding. On the procedure:
FIG. 25: Differential binding of nerve binding peptides to human and mouse tissue. Determination of optimal dose response by topical application of FAM-HNP401 on human laryngeal nerve sections at final concentration of 375 μM (A), 100 μM (B), 50 μM (C), 10 μM (D) and 1 μM (E), imaged with confocal microscopy with identical parameters and levelled equally for comparison. ** brightened 2 fold for viewing. Nerve to muscle contrast at high concentration of 375 μM for FAM-NP41 (F and G) and FAM-HNP401 (H and I) imaged on confocal microscopy and levelled for direct comparison. Mouse facial nerve (red arrows) with surrounding muscle treated with 375 μM (J), 100 μM (K) of FAM-NP41 or 375 μM (L), 100 μM (M) of FAMHNP401.
Dose response data set of FAM-HNP401 on human nerve tissue (FIG. 25:A-E) was acquired with 488 nm laser line, 10μm sections on glass at 10× magnification, 0.45 NA air objective lens. Gain set to 40, power set to 3% of laser power, pixel dwell value of 1.2 μs, aperture size of 1.1 μm and a pixel size of 0.3 μm/px with a 2 k by 2 k size image.
Human sural nerve, antebrachial nerve and laryngeal nerve and temporalis muscle were obtained under IRB protocol number 130837 for Dr. Quyen Nguyen. Human peripheral nerves (typically sural) were obtained from patients undergoing nerve resection procedures. […]

A short description of data set [2]: Stability in ex-vivo human plasma (LC-MS). As to conditions: 37° C., 5 min vs 2 hours. How it is done: An equal volume of 1:1 acetonitrile:water with 2% acetic acid is added to precipitate the protein matter, supernatant is extracted for analysis by LC-MS on a C18 reverse phase column with gradient of 9:1 H2O+0.05% TFA:Acetonitrile+0.05% TFA to 1:9 H2O+0.05% TFA:Acetonitrile+0.05% TFA in 20 min.
The bladder was drained with a syringe and sutured to avoid spillage and contamination around prostate. […] Stability of FAM-HNP401 in human plasma at 5 minutes and 2 hours was determined by incubation of peptide dye conjugate in human serum prior to analysis by mass spectrometry.

The nature of data set [3]: Mass spectroscopy analysis of urine after injection of nerve binding peptides.

`CC(=O)N[C@@H](CO)C(=O)NCC(=O)N[C@@H](CCC(N)=O)C(=O)N[C@H](C(=O)N1CCC[C@H]1C(=O)N[C@@H](Cc1c[nH]c2ccccc12)C(=O)N[C@@H](CCC(=O)O)C(=O)N[C@@H](CCC(=O)O)C(=O)N1CCC[C@H]1C(=O)N[C@@H](Cc1ccc(O)cc1)C(=O)N[C@@H](Cc1ccc(O)cc1)C(=O)N[C@H](C(=O)N[C@H](C(=O)N[C@@H](CCCCN)C(=O)N[C@@H](CCCCN)C(=O)N[C@@H](CO)C(=O)N[C@@H](CO)C(=O)NCC(=O)NCC(=O)N[C@@H](CSC1CC(=O)N(c2ccc3c(c2)C(=O)OC32c3ccc(O)cc3Oc3cc(O)ccc32)C1=O)C(N)=O)C(C)C)C(C)C)C(C)C` (stereo partly drawn) [FAM-HNP401] (Ac-SGQVPWEEPYYVVKKSSGGC(Fluorescein(5-Mal))-NH2; N-terminus and C-terminus assumed): the “labeling of mouse facial nerve versus surrounding muscle” value in the data set with mouse facial nerve was “poor contrast; also recorded: did not perform as well as FAM-NP41”. Besides, the “fluorescent signal in human autonomic nerves compared to FAM-NP41” value in data set [1] is “significantly higher fluorescent signal”. Further, the “concentration giving optimal nerve contrast” value in the data set with human laryngeal nerve (topical 1 to 375 μM) is 50 to 100 µM. The “concentration at which signal from human nerve saturates” value with human laryngeal nerve (topical up to 375 μM) is not above 100 µM. Also, the “stability in human plasma” value in data set [2] was “remain intact at 2 hours; also recorded: stable”. In addition, the “metabolism (species detected in urine)” value in data set [3] is “partially metabolized”.

These data come from patent US11299515B2, “Optimized peptides for targeting human nerves and their use in image guided surgery, diagnostics and therapeutic” (The Regents of the University of California, priority 2017, dated 2022).
